Here are results for ten molecules from publication PMC9292375, “Structural basis of an epitope tagging system derived from Haloarcula marismortui bacteriorhodopsin I D94N and its monoclonal antibody GD‐26” (The Febs Journal, 2021).

Data set [1] can be described thus: Protease resistance of the TD tag during expression and purification. The settings on record: without protease inhibitors; tag remains attached and detectable after expression and purification from bacterial and mammalian cell systems.
For another data set, the target named is G196. Details: method as in PMID 28266535. The settings on record: anti‐tag antibody G196; read-out: Affinity (K D); cited from earlier work.
The target in the next data set is M2. Particulars: read-out: Affinity (K D); anti‐tag antibody M2; cited from earlier work.
For the next data set, the target named is 9E10. Particulars: anti‐tag antibody 9E10; read-out: Affinity (K D); cited from earlier work.
The target of the next data set is GD‐26 Fab. Briefly: ITC titration of peptides or TD‐tagged eGFP into GD‐26 Fab. The settings on record: 25 °C, Tris buffer pH 7.5, engineered synthetic peptides, single experiment (n = 1). The format is binding, mouse. As for the experimental part: The titration experiments were performed with a MicroCal PEAQ‐ITC Automated (Malvern Panalytical, Malvern, UK) at 25 °C. The ITC sample cell contained 200 μL of GD‐26 IgG or GD‐26 Fab in the Tris buffer (50 mM Tris, 150 mM NaCl, pH 7.5). In the syringe, 40 μL of synthetic peptides (peptide III–V) or TD‐tagged eGFP in the same Tris buffer was injected into the sample cell using 20 injections (0.4 μL for the first injection). Prior to data analysis, heats of dilution generated by injecting the peptide solution into the buffer in the sample cell were subtracted from the experimental data. The experimental raw data were analysed using the MicroCal PEAQ‐ITC Analysis software package provided with the instrument. The first data point was removed for fitting the data to a one‐set‐of‐sites model. After entering sample concentrations, the inbuilt function for fitting is operated by clicking iteration button until a good fit to the experimental data points of the isotherms is achieved and Chi‐squared is no longer decreasing. The final fitting parameters including K D, changes in enthalpy (ΔH), entropy (ΔS) and Gibb's free energy (ΔG) and binding stoichiometry were generated by the same software.
On the technique in general: Isothermal titration calorimetry measures the heat released or taken up as one component is titrated into another.

For a further data set, the target named is Nanobody ALFA. Also on record: method as in PMID 31562305. Particulars: read-out: Affinity (K D); cited from earlier work.
A further data set deals with 4B2. Also on record: method as in PMID 24480187. Particulars: anti‐tag antibody 4B2; read-out: Affinity (K D); cited from earlier work.
For data set [2], the target named is T1, TD peptide (GTGATPADD), peptide V from the C terminus of HmBRI D94N (Haloarcula marismortui HmBRI C terminus …).
T1 construct: nine residues at the C terminus of Haloarcula marismortui bacteriorhodopsin I (HmBRI); residue numbers 1-9 count on: the TD peptide; also called TD tag; wild-type TD peptide; source: synthetic peptide
T1 chain: GTGATPADD
Briefly: ITC; synthetic peptide in the syringe titrated into GD-26 Fab or GD-26 IgG (10 μM) in the cell; 25 °C; 50 mM Tris, 150 mM NaCl, pH 7.5; one-set-of-sites model. Particulars: both partners purified.

Data set [3] in a line: Storage stability of GD‐26 IgG. Particulars: stored at 4 °C in Tris buffer. The format is physicochemical.

In general, stoichiometry N refers to the number of molecules, sites or subunits per partner or assembly.

Values joined by “and” are separate entries in the source; they are usually repeats but may differ in a detail not shown here. Identical values can stand only once. “Also recorded” adds a separate entry of the source. Where a SMILES comes first, the peptide text is derived from it.

On to `C[C@H](NC(=O)CNC(=O)[C@@H](NC(=O)CN)[C@@H](C)O)C(=O)N[C@H](C(=O)N1CCC[C@H]1C(=O)N[C@@H](C)C(=O)N[C@@H](CC(=O)O)C(=O)N[C@@H](CC(=O)O)C(=O)O)[C@@H](C)O` [TD] (H-GTGATPADD-OH), for which the “cellular protease resistance and proteolytic stability” value in [1] was “good cellular protease resistance and proteolytic stability”.
For the molecule DLVPR, the Kd on G196 is 1.25 nM.
For the molecule DYKDDDDK [FLAG], the Kd on M2 is 3 to 31 nM.
Turning to EQKLISEEDL [c‐Myc], the Kd on 9E10 was 2.2 to 560 nM.
“GTGATPA [C2, engineered TD peptide, Asp9 and Asp8 depleted]”: the “K D” value on GD‐26 Fab is recorded as “complete loss of binding; also recorded: No binding”.
As to SRLEEELRRRLTE [ALFA], the Kd at Nanobody ALFA is 0.026 nM.
Turning to “TPADD [N4, engineered TD peptide, Gly1 to Ala4 deleted]”, the “K D” value on GD‐26 Fab was “completely diminished its capability to bind; also recorded: No binding”.
For the molecule YPYDVPDYA [HA], the Kd on 4B2 was 1.6 nM.

B1: GD-26 IgG (recombinant monoclonal antibody GD-26, mouse IgG2a) (antibody, V domains shown)
VH: QVQLRQSGPELVKPGASVKMSCRASGYTFTNYNIHWVRQRPGQGLEWIGWIYPVDGTTKYNEKFKDKTTLTSDKSSSTAYMSLSGLTSEDSAIYFCARGLDNWGQGTSVTVSS
VL: DVVLTQTPLSLSVTIGQPASISCRSSQRLLYSNGKTYLNWFQQRPGQAPKYLMFQVSKLGPGIPARFSGSGSETDFTLKISRVEAEDLGVYYCFQGTFFPHTFGGGTKLEMK
notes: PDB 7DOH); Mouse IgG2a isotype; the same light-chain plasmid as for the Fab; source: Expi293F, transient co-transfection, secreted; purified (HiTrap Protein G, Superdex 200 gel filtration); copies: 2 + 2
Regarding B1, in data set [2], the Kd is 22.6 nM and 18.8 nM; the dH was -12.2 kcal/mol; the “stoichiometry N” value is 2.28 sites and 2.27 sites.

B2: GD‐26 IgG: recombinant monoclonal antibody, mouse IgG2a isotype, raised against HmBRI D94N (antibody, V domains shown)
VH: B1 VH
VL: B1 VL
With B2, the “long‐term stability on storage” value in data set [3] was “over a year”.
